Tests used:
TLR4 = target: T1, TLR4 (Homo sapiens, UniProt O00206); experiment: TLR4 assay: unbound TLR4 ELISA in PMA-stimulated THP-1 cell lysates; assay type: binding; details: THP-1 human monocyte cells
T1 construct: Cell lysates were prepared, total protein was quantified and treated with different concentrations; host or cells: THP-1 cells stimulated with PMA for 48 h, then lysed
Method: FIG. 26A, TLR4 assay: 1×10^5 THP cells (ATCC) were seeded in 24 well plates and stimulated with phorbol myristyl actetate (PMA, 200 ng/mL) for 48 h. Cell lysates were prepared, total protein was quantified and treated with different concentrations (4, 16, 62.5 and 250 μM) of the AVR-48 for 2 h. ELISA was performed after to assess unbound TLR4 following manufacturer's instruction (Raybiotech). TLR4 IC50 of the AVR-48 was calculated using GraphPad Prism7.04.

[1] = system: hyperoxia-exposed BPD mouse model; experiment: Hyperoxia-exposed BPD mouse model: dose response and lung morphometry; assay type: in vivo; details: mouse, in vivo
Method: Simultaneously, the AVR-48 nanosuspension formulation IN (0.11 mg/kg) was tested as well as in solution form, IP and IV (10 mg/kg) (through the facial vein), and confirmed that all routes of administration gave similar outcomes. […] From the PK study, as described above, the bioavailability of the drug in the plasma and lungs were similar when delivered as solution formulation via either IN or IP routes. As the goal of this study is to develop AVR-48 as a commercially viable and applicable therapeutic candidate for BPD, the IP route was selected as the preferred mode of drug delivery in neonatal murine pups, with the rationale that it would be easier to deliver the drug systemically to preterm babies IV, rather than the IN route. The results and outcome of all the routes of administration have been presented in a cumulative manner, as the endpoint was similar for all routes of administration. […] FIG. 1 is a dose response study of AVR-48 at different doses of […], given IP. ****p<0.0001. N=5-7 mice per group. 10 mg/kg (IP) was selected as the most efficacious dose. IP: intraperitoneal; Hyp: hyperoxia; BPD: Bronchopulmonary dysplasia.
Formulation of AVR-48 for efficacy and toxicokinetic studies. For the mouse dose response efficacy studies, AVR-48 was reconstituted in 0.9% sterile normal saline to give a final dose concentration of […] as a colorless solution, and injected IP (30 μl) on P2 and P4. The PLGA encapsulated AVR-48 or the GFP-tagged analog was resuspended in deionized sterile water to make a nanosuspension with final dose concentration of 0.025, 0.05 and 0.11 mg/kg/drop. The surfactant Curosurf® (Cheisi Parma, Italy), available commercially, was delivered IN at a volume of 3 μl per nostril, on P2 and P4. For the toxicokinetic study of AVR-48 in rat pups, a formulation of 10% DMSO, 20% tetraglycol, 20% PEG 400, and 50% sterile water was made fresh before administration (Shah, Das et al. 2021).
(§1) For the hyperoxia experiment, newborn pups were exposed to 100% hyperoxia (P0), along with their mothers, in cages in an airtight Plexiglas chamber (OxyCycler; Biospherix, Redfield, NY, USA) as described previously by the present inventors (Syed, Das et al., 2017, Leary, Das et al. 2019, Das, Acharya et al. 2020, relevant portions incorporated herein) for 4 consecutive days (till P4) and removed to RA on P5 to be recovered till P14, so as to emulate the human BPD condition. All pups were sacrificed on P14 for further experimental analyses. The pups without any hyperoxia exposure served as the corresponding RA (normoxia) controls.
Histology, immunohistochemistry and immunofluorescence. Both the RA control and BPD mice were anesthetized (using an overdose of a cocktail of xylazine-ketamine) and lung and heart tissues were harvested after perfusion and fixed overnight in 4% paraformaldehyde. Fixed tissues were then washed in fresh PBS, dehydrated using 70% ethanol, cleared, and embedded in paraffin to be sectioned and stained with hematoxylin and eosin (H&E) for lung morphometry or immunohistochemistry/immunofluorescence as previously described (Leary, Das et al. 2019, Das, Achaiya et al. 2020, Das, Curstedt et al. 2020). Immunofluorescence staining was done for Ki67 (Abcam, 1:10) and Von Wilebrand Factor (vWF-DAKO, 1:100) on lung paraffin sections following the protocol as described earlier (Leary, Das et al. 2019) while TUNEL staining was done following the manufacturer's instructions (Roche).
Morphometry and quantification. To study chord length, septal thickness and radial alveolar count in the lungs, RV, LV and IVS thickness, 5 μm-thick left-lobe lung and heart paraffin-embedded sections were stained with H&E. Multiple randomly chosen areas (at least 10 areas) from each section were photographed using 100× total magnification. […]

[2] = Oral PK of nanomilled formulations in adult SD rats; assay type: in vivo, rat; details: rat, in vivo, po, 100 mg/kg
Method: The test item, the stabilizer (HPC-SSL) and the surfactant (SDS) were accurately weighed and transferred in a 15-mL amber glass jar charged with 6 mL of yttrium-stabilized zirconia beads (0.8 mm). The suspension was brought to final weight with water in order to achieve the desired final concentration. The formulation was mixed using a vortex for at least 1 minute and then homogenized using a roller mill (Unitized Jar Mill, Model 755 RMV from U.S. Stoneware (purchased from Fisher Scientific Canada cat #08-381-1) at 50 rpm for 48 hours.
For the animal study, the suspensions prepared at 50 mg/mL were diluted to 10 mg/mL using a blank vehicle prepared using the same proportions of excipients as those indicated in Table I. By diluting the concentrated suspension of AVR-84 a clear solution was obtained whereas for AVR-48 the solution was a homogeneous cloudy solution.
Animals and dosing: The male SD rats (N=3) were obtained from Charles River. Each animal was weighed before the administration of the test item. […] At the specified time points, t=15′, 30′, 1 h, 2 h, 3 h, 4 h, 6 h, 8 h and 24 h (N=3), blood (100 μL) was collected via the saphenous vein using MINIVETTE® POCT K3-EDTA. The blood samples were centrifuged for 10 min at 965 g and 4° C. within 30 min of collection, to obtain plasma. Plasma samples were kept frozen at −80° C. The plasma samples were thawed on ice and kept on ice during the sample preparation. Thirty μL of plasma samples were mixed with 75 μL of precipitation solution (80% acetonitrile and 20% methanol containing IS) was added. Samples were mixed and centrifuged at 3500 rpm for 10 min at 4° C. Forty μL of the supernatant was transferred to a 96 well plate, and 80 μL of water+0.1% formic acid was added and analyzed using the in house developed HPLC method.

[3] = system: hyperoxia-exposed BPD mouse model; experiment: BPD mouse model: bronchoalveolar lavage fluid (BALF) analysis; assay type: in vivo; details: 10 mg/kg; vs BPD group
Excerpt: as §1
Bronchoalveolar lavage fluid (BALF) Analysis. Pups were sacrificed on PN14, and the trachea was cannulated with a small-caliber needle by instilling PBS endotracheally at […] pressure for 15 minutes. Two volumes of 300 μL of cold 1×PBS were instilled, gently aspirated, and pooled. Samples were centrifuged at 1000×g for 10 minutes at 4° C. The supernatant was collected, and total protein was quantified using the Pierce™ BCA Protein Assay Kit (Fisher Scientific Co, Houston, TX). The total cell count was done using the TC20 cell counter (BioRad, Hercules, CA). Similar method was followed for analyzing the protein concentration in BAL fluid collected from preterm lambs.

[4] = system: human cord blood monocytes (CBMC); experiment: Cytokines in human cord blood monocytes (CBMC); assay type: cell-based; details: compound alone (10 μM) or with LPS, compared with only LPS
Excerpt: IL-12p40, is a marker for the innate immune response to infection and is down regulated in CBMC.

T1 sequence (O00206 24-839): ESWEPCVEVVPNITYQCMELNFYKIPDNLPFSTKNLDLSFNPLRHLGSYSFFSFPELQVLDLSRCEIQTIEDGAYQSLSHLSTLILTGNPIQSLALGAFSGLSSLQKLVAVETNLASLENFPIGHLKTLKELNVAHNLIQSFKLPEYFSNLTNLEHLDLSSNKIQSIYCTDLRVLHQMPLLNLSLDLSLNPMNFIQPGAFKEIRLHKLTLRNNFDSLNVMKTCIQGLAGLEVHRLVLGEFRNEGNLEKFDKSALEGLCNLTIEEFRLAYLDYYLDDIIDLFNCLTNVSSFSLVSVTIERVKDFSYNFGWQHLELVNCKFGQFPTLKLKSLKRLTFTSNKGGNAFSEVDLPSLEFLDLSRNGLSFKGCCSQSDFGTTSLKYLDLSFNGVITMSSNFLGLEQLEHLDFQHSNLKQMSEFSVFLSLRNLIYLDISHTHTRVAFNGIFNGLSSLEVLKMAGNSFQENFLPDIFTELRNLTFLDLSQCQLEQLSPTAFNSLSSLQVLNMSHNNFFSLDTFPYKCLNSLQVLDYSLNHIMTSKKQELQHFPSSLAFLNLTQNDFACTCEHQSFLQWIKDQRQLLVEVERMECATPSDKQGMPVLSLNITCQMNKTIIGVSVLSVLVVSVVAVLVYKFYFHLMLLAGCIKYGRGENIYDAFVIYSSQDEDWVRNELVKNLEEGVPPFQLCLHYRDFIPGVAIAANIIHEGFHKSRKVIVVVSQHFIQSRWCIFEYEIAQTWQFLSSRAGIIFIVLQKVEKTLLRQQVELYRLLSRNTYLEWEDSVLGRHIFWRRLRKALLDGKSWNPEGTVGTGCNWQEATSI

CC(=O)N[C@@H]1C(Oc2ccc(B3OC(C)(C)C(C)(C)O3)cc2)OC(CO)C(O)C1O (stereo partly shown) [Compound 32]
binding to TLR4 (TLR4): bind TLR4 | inflammatory cytokines in neonatal mouse pups with BPD [1]: decrease inflammatory cytokines

CC(=O)NC1[C@H](Oc2ccc(C(=O)N[C@@H]3OC(CO)[C@@H](O)[C@H](O)C3NC(C)=O)cc2)OC(CO)[C@@H](O)[C@@H]1O (stereo partly shown) [Compound 3]
binding to TLR4 (TLR4): bind TLR4 | inflammatory cytokines in neonatal mouse pups with BPD [1]: decrease inflammatory cytokines

CC(=O)N[C@@H]1C(Oc2ccc3nonc3c2)OC(CO)C(O)C1O (stereo partly shown) [AVR-84]
Cmax [2]: 4.56 µM | Tmax [2]: 0.5 ± 0.0 h | half-life (T v2) [2]: 1.66 ± 1.0 h | plasma concentration profile [2]: linear decline in drug concentration

CCOC(=O)C1=CCCC[C@H]1S(=O)(=O)Nc1ccc(F)cc1Cl [TAK 242, reference compound]
total inflammatory cells in BALF [3]: did not affect | IL-12p40 response [4]: decrease the LPS induced increase in IL-12p40 level

Reference: patent US12440471B2, “Compositions and methods for the treatment of bronchopulmonary dysplasia (BPD) and BPD-associated pulmonary hypertension” (AyuVis Research, Inc., priority 2021, dated 2025)
